# In patent publication US10316035B2, “Triazolopyridine inhibitors of myeloperoxidase” (BRISTOL-MYERS SQUIBB COMPANY, priority 2015, dated 2019):
# Target: T1, myeloperoxidase (MPO) (Homo sapiens, UniProt P05164)
# T1 sequence (P05164 49-745): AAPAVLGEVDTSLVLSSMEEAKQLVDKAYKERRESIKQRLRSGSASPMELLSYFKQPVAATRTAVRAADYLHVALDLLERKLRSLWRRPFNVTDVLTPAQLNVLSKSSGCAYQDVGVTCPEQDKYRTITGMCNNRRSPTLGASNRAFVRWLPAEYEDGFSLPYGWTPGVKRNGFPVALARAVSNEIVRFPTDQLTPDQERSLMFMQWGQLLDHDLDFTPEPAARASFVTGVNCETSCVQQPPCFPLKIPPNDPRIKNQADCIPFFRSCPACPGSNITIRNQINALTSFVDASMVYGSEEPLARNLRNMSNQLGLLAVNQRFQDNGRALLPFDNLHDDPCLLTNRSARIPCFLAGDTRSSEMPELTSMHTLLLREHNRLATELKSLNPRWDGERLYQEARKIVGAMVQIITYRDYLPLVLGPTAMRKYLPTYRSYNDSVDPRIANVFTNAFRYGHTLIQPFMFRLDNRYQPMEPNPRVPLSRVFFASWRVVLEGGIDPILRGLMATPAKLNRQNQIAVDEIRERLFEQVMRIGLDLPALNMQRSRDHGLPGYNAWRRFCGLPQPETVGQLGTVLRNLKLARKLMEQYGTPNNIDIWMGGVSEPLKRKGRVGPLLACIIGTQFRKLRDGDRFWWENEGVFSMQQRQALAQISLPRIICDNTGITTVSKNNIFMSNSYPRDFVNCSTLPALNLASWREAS
# Assay: MPO peroxidation assay (Amplex Red assay)
# Format: biochemical
# Conditions: MPO peroxidation, potency range class; read-out: Amplex Red IC50
# Procedure, shortened: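 MPO (200 pM) with 40 nM H2O2 was preincubated 10 min at room temperature with inhibitor in 100 mM KPi pH 7.4. A mix of Amplex Red (200 μM) and H2O2 (10 mM) was then added and resorufin fluorescence read kinetically for 15 min. Slopes over 180–540 s gave % inhibition and IC50 via a four-parameter Hill fit.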
row,Compound,IC50
1,CN1CCC(N(C)C(=O)c2ccc(F)c(COc3cc(N)nc4[nH]nnc34)c2)C1 (stereo not shown) [Example 164],101 to 999 nM
2,"Nc1cc(OCc2cc(C(=O)N3CC[C@@H](O)C3)ccc2F)c2nn[nH]c2n1 [Example 166, (R)-(3-((5-amino-3H-[1,2,3]triazolo [4,5-b]pyridin-7-yloxy)methyl)-4-fluorophenyl)(3-hydroxypyrrolidin-1-yl)methanone]",101 to 999 nM
3,"Nc1cc(OCc2cc(C(=O)N3CCNC(=O)C3)ccc2F)c2nn[nH]c2n1 [Example 169, 4-(3-((5-amino-3H-[1,2,3]triazolo [4,5-b]pyridin-7-yloxy)methyl)-4-fluorobenzoyl)piperazin-2-one]",101 to 999 nM
4,"Nc1cc(OCc2cc(C(=O)N3CCC(O)C3)ccc2Cl)c2nn[nH]c2n1 (stereo not shown) [Example 176, (3-((5-amino-3H-[1,2,3]triazolo [4,5-b]pyridin-7-yloxy)methyl)-4-chlorophenyl)(3-hydroxypyrrolidin-1-yl)methanone]",101 to 999 nM
5,"Nc1cc(OCc2cc(C(=O)N3CCC[C@@H]3CO)ccc2Cl)c2nn[nH]c2n1 [Example 178, (R)-(3-((5-amino-3H-[1,2,3]triazolo[4,5-b]pyridin-7-yloxy)methyl)-4-chlorophenyl)(2-(hydroxymethyl)pyrrolidin-1-yl)methanone]",101 to 999 nM
6,"Nc1cc(OCc2cc(C(=O)N3CCC[C@H]3CO)ccc2Cl)c2nn[nH]c2n1 [Example 179, (S)-(3-((5-amino-3H-[1,2,3]triazolo[4,5-b]pyridin-7-yloxy)methyl)-4-chlorophenyl)(2-(hydroxymethyl)pyrrolidin-1-yl)methanone]",101 to 999 nM
7,"Nc1cc(OCc2cc(C(=O)N3CCC3)ccc2Cl)c2nn[nH]c2n1 [Example 182, (3-((5-amino-3H-[1,2,3]triazolo [4,5-b]pyridin-7-yloxy)methyl)-4-chlorophenyl)(azetidin-1-yl)methanone]",101 to 999 nM
8,"Nc1cc(OCc2cc(C(=O)N(CCO)Cc3ccccc3)ccc2Cl)c2nn[nH]c2n1 [Example 183, 3-((5-amino-3H-[1,2,3]triazolo [4,5-b]pyridin-7-yloxy)methyl)-N-benzyl-4-chloro-N-(2-hydroxyethyl)benzamide]",101 to 999 nM
9,"CCN(CCO)C(=O)c1ccc(Cl)c(COc2cc(N)nc3[nH]nnc23)c1 [Example 184, 3-((5-amino-3H-[1,2,3]triazolo [4,5-b]pyridin-7-yloxy)methyl)-4-chloro-N-ethyl-N-(2-hydroxyethyl) benzamide]",101 to 999 nM
10,"CN(C)C(=O)c1ccc(Cl)c(COc2cc(N)nc3[nH]nnc23)c1 [Example 185, 3-((5-amino-3H-[1,2,3]triazolo [4,5-b]pyridin-7-yloxy)methyl)-4-chloro-N,N-dimethylbenzamide]",101 to 999 nM
11,"CNC(=O)CNC(=O)c1ccc(Cl)c(COc2cc(N)nc3[nH]nnc23)c1 [Example 187, 3-((5-amino-3H-[1,2,3]triazolo [4,5-b]pyridin-7-yloxy)methyl)-4-chloro-N-(2-(methylamino)-2-oxoethyl)benzamide]",101 to 999 nM
12,"CN(CC(N)=O)C(=O)c1ccc(Cl)c(COc2cc(N)nc3[nH]nnc23)c1 [Example 189, N-(2-amino-2-oxoethyl)-3-((5-amino-3H-[1,2,3]triazolo[4,5-b]pyridin-7-yloxy)methyl)-4-chloro-N-methylbenzamide]",101 to 999 nM
13,"Nc1cc(OCc2cc(C(=O)NC3CCS(=O)(=O)C3)ccc2Cl)c2nn[nH]c2n1 (stereo not shown) [Example 193, 3-((5-amino-3H-[1,2,3]triazolo [4,5-b]pyridin-7-yloxy)methyl)-4-chloro-N-(1,1-dioxidotetrahydrothien-3-yl)benzamide]",101 to 999 nM
14,"Nc1cc(OCc2ccc(C(=O)NC3CC3)cc2Cl)c2nn[nH]c2n1 [Example 197, 4-((5-amino-3H-[1,2,3]triazolo[4,5-b]pyridin-7-yloxy)methyl)-3-chloro-N-cyclopropylbenzamide]",101 to 999 nM
15,"Nc1cc(OCc2ccc(C(=O)NCC3CCCCC3)cc2Cl)c2nn[nH]c2n1 [Example 198, 4-((5-amino-3H-[1,2,3]triazolo[4,5-b]pyridin-7-yloxy)methyl)-3-chloro-N-(cyclohexylmethyl)benzamide]",101 to 999 nM
16,"Nc1cc(OCc2ccc(C(=O)N3CCC[C@H]3CO)cc2Cl)c2nn[nH]c2n1 [Example 199, (S)-(4-((5-amino-3H-[1,2,3]triazolo [4,5-b]pyridin-7-yloxy)methyl)-3-chlorophenyl)(2-(hydroxymethyl)pyrrolidin-1-yl)methanone]",101 to 999 nM
17,Nc1cc(OCc2ccc(C(=O)N3CCCCC3c3ccccc3)cc2Cl)c2nn[nH]c2n1 (stereo not shown) [Example 206],101 to 999 nM
18,"Cc1cc(CNC(=O)c2ccc(COc3cc(N)nc4[nH]nnc34)c(Cl)c2)n(C)n1 [Example 207, 4-((5-amino-3H-[1,2,3]triazolo[4,5-b]pyridin-7-yloxy)methyl)-3-chloro-N-((1,3-dimethyl-1H-pyrazol-5-yl)methyl)benzamide]",1 to 100 nM
19,Nc1cc(OCc2ccc(C(=O)N3CCCC(Oc4ccccc4)C3)cc2Cl)c2nn[nH]c2n1 (stereo not shown) [Example 209],1 to 100 nM

# Continued, values first:
row,IC50,Compound
1,1 to 100 nM,"NC(=O)CCNC(=O)c1ccc(F)c(COc2cc(N)nc3[nH]nnc23)c1 [Example 170, N-(3-amino-3-oxopropyl)-3-((5-amino-3H-[1,2,3]triazolo[4,5-b]pyridin-7-yloxy)methyl)-4-fluorobenzamide]"
2,1 to 100 nM,"COC(=O)c1ccc(Cl)c(COc2cc(N)nc3[nH]nnc23)c1 [Example 171, Methyl 3-((5-amino-3H-[1,2,3]triazolo[4,5-b]pyridin-7-yloxy)methyl)-4-chlorobenzoate]"
3,1 to 100 nM,"Nc1cc(OCc2cc(C(=O)NCc3ccccc3)ccc2Cl)c2nn[nH]c2n1 [Example 173, 3-((5-amino-3H-[1,2,3]triazolo [4,5-b]pyridin-7-yloxy)methyl)-N-benzyl-4-chlorobenzamide]"
4,1 to 100 nM,"CN(C(=O)c1ccc(Cl)c(COc2cc(N)nc3[nH]nnc23)c1)c1ccccc1 [Example 175, 3-((5-amino-3H-[1,2,3]triazolo [4,5-b]pyridin-7-yloxy)methyl)-4-chloro-N-methyl-N-phenylbenzamide]"
5,1 to 100 nM,"Nc1cc(OCc2cc(C(=O)NC3CC3)ccc2Cl)c2nn[nH]c2n1 [Example 188, 3-((5-amino-3H-[1,2,3]triazolo [4,5-b]pyridin-7-yloxy)methyl)-4-chloro-N-cyclopropylbenzamide]"
6,1 to 100 nM,"Nc1cc(OCc2cc(C(=O)NCC(F)(F)F)ccc2Cl)c2nn[nH]c2n1 [Example 190, 3-((5-amino-3H-[1,2,3]triazolo [4,5-b]pyridin-7-yloxy)methyl)-4-chloro-N-(2,2,2-trifluoroethyl) benzamide]"
7,1 to 100 nM,"CC(O)CNC(=O)c1ccc(Cl)c(COc2cc(N)nc3[nH]nnc23)c1 (stereo not shown) [Example 191, 3-((5-amino-3H-[1,2,3]triazolo [4,5-b]pyridin-7-yloxy)methyl)-4-chloro-N-(2-hydroxypropyl) benzamide]"
8,1 to 100 nM,"Nc1cc(OCc2cc(C(=O)NCc3ccc[nH]c3=O)ccc2Cl)c2nn[nH]c2n1 [Example 192, 3-((5-amino-3H-[1,2,3]triazolo [4,5-b]pyridin-7-yloxy)methyl)-4-chloro-N-((2-oxo-1,2-dihydropyridin-3-yl)methyl) benzamide]"
9,1 to 100 nM,"COC(=O)c1ccc(COc2cc(N)nc3[nH]nnc23)c(Cl)c1 [Example 194, Methyl 4-((5-amino-3H-[1,2,3]triazolo[4,5-b]pyridin-7-yloxy)methyl)-3-chlorobenzoate]"
10,1 to 100 nM,"Nc1cc(OCc2ccc(C(=O)NCc3ccccc3)cc2Cl)c2nn[nH]c2n1 [Example 196, 4-((5-amino-3H-[1,2,3]triazolo[4,5-b]pyridin-7-yloxy)methyl)-N-benzyl-3-chlorobenzamide]"
11,1 to 100 nM,"CC(NC(=O)c1ccc(COc2cc(N)nc3[nH]nnc23)c(Cl)c1)c1ccccc1 (stereo not shown) [Example 201, 4-((5-amino-3H-[1,2,3]triazolo[4,5-b]pyridin-7-yloxy)methyl)-3-chloro-N-(1-phenylethyl)benzamide]"
12,1 to 100 nM,"CN(C)CCNC(=O)c1ccc(COc2cc(N)nc3[nH]nnc23)c(Cl)c1 [Example 202, 4-((5-amino-3H-[1,2,3]triazolo[4,5-b]pyridin-7-yloxy)methyl)-3-chloro-N-(2-(dimethylamino)ethyl) benzamide]"
13,1 to 100 nM,"CN(C(=O)c1ccc(COc2cc(N)nc3[nH]nnc23)c(Cl)c1)c1ccccc1 [Example 203, 4-((5-amino-3H-[1,2,3]triazolo[4,5-b]pyridin-7-yloxy)methyl)-3-chloro-N-methyl-N-phenylbenzamide]"
14,1 to 100 nM,"CN(Cc1ccccc1)C(=O)c1ccc(COc2cc(N)nc3[nH]nnc23)c(Cl)c1 [Example 204, 4-((5-amino-3H-[1,2,3]triazolo[4,5-b]pyridin-7-yloxy)methyl)-N-benzyl-3-chloro-N-methylbenzamide]"
15,1 to 100 nM,"Nc1cc(OCc2ccc(C(=O)NC3CCC3)cc2Cl)c2nn[nH]c2n1 [Example 205, 4-((5-amino-3H-[1,2,3]triazolo[4,5-b]pyridin-7-yloxy)methyl)-3-chloro-N-cyclobutylbenzamide]"
